Each compound was assayed against T1, human Nav1.7 (hNav1.7) (Homo sapiens, UniProt Q15858) (assay: Whole-cell patch-clamp inhibition of Nav1.7 currents in transfected HEK293T cells). Conditions: 10 μM compound; inhibition rate of Nav1.7.
T1 construct: expressed in transfected cells; host or cells: HEK293T
Format: cell-based
Method: Human embryonic kidney (HEK) 293T (ATCC CRL-3216) and ND7/23 cells (National Collection of Authenticated Cell Cultures SCSP-5026) were cultured under standard conditions (5% CO2, 37 °C) in Dulbecco’s modified Eagle’s medium (DMEM) containing 10% fetal bovine serum and 1% penicillin-streptomycin solution(all from Gibco, Thermo Fisher Scientific, Waltham, MA, USA). When the cells reached 70% to 90% confluence, human Nav1.2 (hNav1.2), human Nav1.3 (hNav1.3), human Nav1.4 (hNav1.4), human Nav1.5 (hNav1.5), and mouse Nav1.6 (mNav1.6) channel plasmids were cotransfected with enhanced green fluorescent protein (eGFP) into HEK293T cells. Additionally, plasmids expressing β1 and β2 subunits tagged with eGFP were cotransfected with the human Nav1.7 (hNav1.7) channel into HEK293T cells. Human Nav1.8 (hNav1.8) was transiently transfected into ND7/23 cells, along with eGFP, using Lipofectamine 2000 (Invitrogen), adhering strictly to the manufacturer’s protocol. For manual patch-clamp experiments, the cells were plated onto glass coverslips and used within 20 to 48 h of transfection.
Whole-cell patch-clamp recordings were conducted at 25 ± 2 °C, utilizing an EPC 10USB patch-clamp amplifier (HEKA Elektronik, Lambrecht, Germany). Pipettes, with access resistance between 2.0 and 3.0 MΩ, were pulled from borosilicate glass capillary tubes using a 2-step vertical microelectrode puller (PC-10, Narishige Group, Tokyo, Japan). Voltage-clamp recordings were obtained with PatchMaster software v2 × 73 (HEKA Elektronik) 5 min after establishing whole-cell configuration, sampled at 20 kHz, and filtered at 5 kHz. To minimize voltage errors, 80% series resistance compensation was applied. Pipettes were filled with 140 mM CsF, 10 mM NaCl, 1 mM EGTA, and 10 mM HEPES (pH=7.4, adjusted with CsOH). The external solution contained 140 mM NaCl, 2 mM CaCl2, 1 mM MgCl2, 5 mM KCl, 10 mM HEPES, and 10 mM glucose (pH=7.4, adjusted with NaOH). IC50 values were determined in HEK293T or ND7/23 cell lines by voltage clamping at −80 mV, followed by stepping to the V1/2 of inactivation for 8 s to facilitate compound binding.

T1 sequence (Q15858 whole entry): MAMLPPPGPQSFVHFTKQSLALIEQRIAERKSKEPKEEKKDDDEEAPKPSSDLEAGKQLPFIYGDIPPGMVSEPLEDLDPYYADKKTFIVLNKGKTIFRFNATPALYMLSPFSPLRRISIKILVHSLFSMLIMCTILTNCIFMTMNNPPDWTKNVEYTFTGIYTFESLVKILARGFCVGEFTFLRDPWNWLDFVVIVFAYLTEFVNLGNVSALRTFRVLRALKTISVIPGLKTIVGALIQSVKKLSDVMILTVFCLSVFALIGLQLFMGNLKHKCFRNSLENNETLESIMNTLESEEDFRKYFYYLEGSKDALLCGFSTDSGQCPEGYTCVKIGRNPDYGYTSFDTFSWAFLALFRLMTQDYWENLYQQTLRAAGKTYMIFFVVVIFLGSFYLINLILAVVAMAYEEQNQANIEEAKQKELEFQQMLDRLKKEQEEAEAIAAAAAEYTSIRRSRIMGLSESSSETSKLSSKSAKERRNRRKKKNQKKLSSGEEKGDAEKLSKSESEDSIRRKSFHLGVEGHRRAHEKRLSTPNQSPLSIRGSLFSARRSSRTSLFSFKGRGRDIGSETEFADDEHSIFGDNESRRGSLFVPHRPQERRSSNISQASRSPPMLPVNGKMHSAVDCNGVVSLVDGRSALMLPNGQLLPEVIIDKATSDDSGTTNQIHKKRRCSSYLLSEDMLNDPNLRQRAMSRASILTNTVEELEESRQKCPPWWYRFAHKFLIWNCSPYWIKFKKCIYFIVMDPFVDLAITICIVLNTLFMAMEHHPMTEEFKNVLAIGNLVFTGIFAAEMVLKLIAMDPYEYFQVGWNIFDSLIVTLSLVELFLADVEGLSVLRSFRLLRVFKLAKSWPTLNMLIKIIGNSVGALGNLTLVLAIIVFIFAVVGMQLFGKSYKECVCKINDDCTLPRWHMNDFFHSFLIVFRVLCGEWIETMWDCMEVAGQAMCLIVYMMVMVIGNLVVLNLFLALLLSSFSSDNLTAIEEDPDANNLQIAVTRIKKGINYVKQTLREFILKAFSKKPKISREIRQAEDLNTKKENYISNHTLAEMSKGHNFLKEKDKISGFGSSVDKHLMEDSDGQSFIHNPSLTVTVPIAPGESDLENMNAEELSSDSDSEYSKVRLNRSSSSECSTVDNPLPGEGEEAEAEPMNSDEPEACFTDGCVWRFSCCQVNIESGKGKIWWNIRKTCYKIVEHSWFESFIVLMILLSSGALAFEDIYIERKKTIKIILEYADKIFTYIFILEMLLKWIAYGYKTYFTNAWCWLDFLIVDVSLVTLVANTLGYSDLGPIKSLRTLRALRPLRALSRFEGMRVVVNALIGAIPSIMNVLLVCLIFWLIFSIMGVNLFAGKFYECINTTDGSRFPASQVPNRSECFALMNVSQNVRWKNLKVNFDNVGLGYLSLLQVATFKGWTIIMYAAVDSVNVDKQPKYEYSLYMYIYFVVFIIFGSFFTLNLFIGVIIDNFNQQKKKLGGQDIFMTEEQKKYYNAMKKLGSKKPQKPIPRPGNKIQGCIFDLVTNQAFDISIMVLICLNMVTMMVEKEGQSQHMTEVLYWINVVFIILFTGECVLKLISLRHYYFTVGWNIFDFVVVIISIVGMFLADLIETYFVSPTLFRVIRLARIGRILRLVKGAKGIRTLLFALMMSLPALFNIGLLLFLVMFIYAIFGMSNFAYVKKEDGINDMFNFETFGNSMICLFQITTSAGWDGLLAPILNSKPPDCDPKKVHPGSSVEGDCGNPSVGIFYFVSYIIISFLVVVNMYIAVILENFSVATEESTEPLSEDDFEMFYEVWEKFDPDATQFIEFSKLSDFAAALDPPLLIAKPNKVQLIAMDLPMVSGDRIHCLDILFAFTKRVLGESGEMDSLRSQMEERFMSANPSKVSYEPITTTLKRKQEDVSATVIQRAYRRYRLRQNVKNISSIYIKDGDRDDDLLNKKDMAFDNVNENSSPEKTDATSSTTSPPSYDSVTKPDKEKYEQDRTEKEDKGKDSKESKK
T1 sequence (Q07699 19-218 partner): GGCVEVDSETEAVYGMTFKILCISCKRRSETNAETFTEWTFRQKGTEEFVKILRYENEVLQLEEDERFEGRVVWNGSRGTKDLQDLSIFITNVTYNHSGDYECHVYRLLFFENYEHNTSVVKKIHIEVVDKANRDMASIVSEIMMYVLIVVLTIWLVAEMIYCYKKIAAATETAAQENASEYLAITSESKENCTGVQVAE
T1 sequence (O60939 30-215 partner): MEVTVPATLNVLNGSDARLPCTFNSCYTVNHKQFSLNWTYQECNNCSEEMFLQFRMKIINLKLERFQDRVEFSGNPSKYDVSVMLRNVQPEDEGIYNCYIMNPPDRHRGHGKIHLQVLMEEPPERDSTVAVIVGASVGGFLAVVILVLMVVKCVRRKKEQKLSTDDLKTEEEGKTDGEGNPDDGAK

Row | Inhibitory activity (10 μM) | Compound
1 | 19.13% ± 16.30% | (C)C(CC(=O)NCCC1=CC=CC=N1)C2=CN(C3=CC=CC=C32)CC4=CC=CC=C4 [B37]

Same assay, conditions: HEK-293T; 10 μM compound; inhibition rate of Nav1.7; read-out: Inhibitory activity (10 μM)

Row | inhibition at 10 µM | Compound
2 | 18.2% | O=C(CC(c1ccc(C(F)(F)F)cc1)c1cn(Cc2ccc(F)cc2)c2ccccc12)NCc1ccncc1 (stereo not shown) [B23, C1=CC=C2C(=C1)C(=CN2CC3=CC=C(C=C3)F)C(CC(=O)NCC4=CC=NC=C4)C5=CC=C(C=C5)C(F)(F)F]
3 | 16% | O=C(CC(c1cccc(Cl)c1)c1cn(Cc2ccc(F)cc2)c2ccccc12)NCCc1ccccn1 (stereo not shown) [B27, C1=CC=C2C(=C1)C(=CN2CC3=CC=C(C=C3)F)C(CC(=O)NCCC4=CC=CC=N4)C5=CC(=CC=C5)Cl]
4 | 29.2% | O=C(CC(c1cccc(Oc2ccccc2)c1)c1cn(Cc2ccc(F)cc2)c2ccccc12)NCCc1ccccn1 (stereo not shown) [B28, C1=CC=C(C=C1)OC2=CC=CC(=C2)C(CC(=O)NCCC3=CC=CC=N3)C4=CN(C5=CC=CC=C54)CC6=CC=C(C=C6)F]
5 | 9.42% | COc1ccc(Cn2cc(C(CC(=O)NCCc3ccccn3)c3ccc(OC)cc3)c3ccccc32)cc1 (stereo not shown) [B29, COC1=CC=C(C=C1)CN2C=C(C3=CC=CC=C32)C(CC(=O)NCCC4=CC=CC=N4)C5=CC=C(C=C5)OC]
6 | 8.62% | COc1ccc(Cn2cc(C(CC(=O)NCCc3ccccn3)c3cccc(Cl)c3)c3ccccc32)cc1 (stereo not shown) [B30, COC1=CC=C(C=C1)CN2C=C(C3=CC=CC=C32)C(CC(=O)NCCC4=CC=CC=N4)C5=CC(=CC=C5)Cl]
7 | 16.6% | O=C(CC(c1ccc(C(F)(F)F)cc1)c1cn(Cc2ccccc2)c2ccccc12)NCCc1ccccn1 (stereo not shown) [B32, C1=CC=C(C=C1)CN2C=C(C3=CC=CC=C32)C(CC(=O)NCCC4=CC=CC=N4)C5=CC=C(C=C5)C(F)(F)F]
8 | 19.8% | O=C(CC(c1cccc(C(F)(F)F)c1)c1cn(Cc2ccc(F)cc2)c2ccccc12)NCCc1ccccn1 (stereo not shown) [B33, C1=CC=C2C(=C1)C(=CN2CC3=CC=C(C=C3)F)C(CC(=O)NCCC4=CC=CC=N4)C5=CC(=CC=C5)C(F)(F)F]
9 | 13.4% | CC(C)CNC(=O)CC(c1ccc(C(F)(F)F)cc1)c1cn(Cc2ccccc2)c2ccccc12 (stereo not shown) [B34, CC(C)CNC(=O)CC(C1=CC=C(C=C1)C(F)(F)F)C2=CN(C3=CC=CC=C32)CC4=CC=CC=C4]
10 | 15.6% | O=C(CC(c1cccc(C(F)(F)F)c1)c1cn(Cc2ccc(F)cc2)c2ccccc12)NCc1ccncc1 (stereo not shown) [B35, C1=CC=C2C(=C1)C(=CN2CC3=CC=C(C=C3)F)C(CC(=O)NCC4=CC=NC=C4)C5=CC(=CC=C5)C(F)(F)F]
11 | 17.2% | O=C(CC(c1ccc(C(F)(F)F)cc1)c1cn(Cc2ccccc2)c2ccccc12)NCc1ccncc1 (stereo not shown) [B36, C1=CC=C(C=C1)CN2C=C(C3=CC=CC=C32)C(CC(=O)NCC4=CC=NC=C4)C5=CC=C(C=C5)C(F)(F)F]
12 | 13.9% | Cn1cc(C(CC(=O)NCCc2ccccn2)c2ccc(C(F)(F)F)cc2)c2ccccc21 (stereo not shown) [B38, CN1C=C(C2=CC=CC=C21)C(CC(=O)NCCC3=CC=CC=N3)C4=CC=C(C=C4)C(F)(F)F]
13 | 16.7% | O=C(C1CCCN1C(=O)c1csc(Nc2ccc(F)cc2)n1)N1CCOCC1 (stereo not shown) [B39, C1CC(N(C1)C(=O)C2=CSC(=N2)NC3=CC=C(C=C3)F)C(=O)N4CCOCC4]
14 | 73.2% | O=C(CC(c1ccc(C(F)(F)F)cc1)c1cn(Cc2ccc(F)cc2)c2ccccc12)NCCc1ccccn1 (stereo not shown) [WN1, C1=CC=C2C(=C1)C(=CN2CC3=CC=C(C=C3)F)C(CC(=O)NCCC4=CC=CC=N4)C5=CC=C(C=C5)C(F)(F)F]
15 | 91.5% | Cc1ccc(Cn2cc(C(CC(=O)NCCN(C)C)c3ccc(F)cc3)c3ccccc32)cc1 (stereo not shown) [WN2]

Row | Compound | inhibition at 10 µM
16 | COc1ccc(C(CC(=O)NCCc2ccccn2)c2cn(Cc3ccc(F)cc3)c3ccccc23)cc1 (stereo not shown) [B20, COC1=CC=C(C=C1)C(CC(=O)NCCC2=CC=CC=N2)C3=CN(C4=CC=CC=C43)CC5=CC=C(C=C5)F] | 37.5%
17 | CCN1CCN(C(=O)CC(c2ccc(C(F)(F)F)cc2)c2cn(Cc3ccc(F)cc3)c3ccccc23)CC1 (stereo not shown) [B21, CCN1CCN(CC1)C(=O)CC(C2=CC=C(C=C2)C(F)(F)F)C3=CN(C4=CC=CC=C43)CC5=CC=C(C=C5)F] | 71.4%
18 | COc1cc(OC)cc(C(CC(=O)NCCc2ccccn2)c2cn(Cc3ccccc3)c3ccccc23)c1 (stereo not shown) [B22, COC1=CC(=CC(=C1)C(CC(=O)NCCC2=CC=CC=N2)C3=CN(C4=CC=CC=C43)CC5=CC=CC=C5)OC] | 45%
19 | O=C(CC(c1ccc(C(F)(F)F)cc1)c1cn(Cc2ccc(F)cc2)c2ccccc12)NCCN1CCOCC1 (stereo not shown) [B24, C1COCCN1CCNC(=O)CC(C2=CC=C(C=C2)C(F)(F)F)C3=CN(C4=CC=CC=C43)CC5=CC=C(C=C5)F] | 16%
20 | O=C(CC(c1ccc(C(F)(F)F)cc1)c1cn(Cc2ccc(F)cc2)c2ccccc12)N1CCCC1 (stereo not shown) [B25, C1CCN(C1)C(=O)CC(C2=CC=C(C=C2)C(F)(F)F)C3=CN(C4=CC=CC=C43)CC5=CC=C(C=C5)F] | 23.1%
21 | COc1cc(OC)cc(C(CC(=O)NCCc2ccccn2)c2cn(Cc3ccc(F)cc3)c3ccccc23)c1 (stereo not shown) [B26, COC1=CC(=CC(=C1)C(CC(=O)NCCC2=CC=CC=N2)C3=CN(C4=CC=CC=C43)CC5=CC=C(C=C5)F)OC] | 26.1%
22 | O=S(=O)(c1ccc(F)cc1)N(c1ccc2c(c1)OCO2)C1CCN(Cc2cccnc2)CC1 [B31, C1CN(CCC1N(C2=CC3=C(C=C2)OCO3)S(=O)(=O)C4=CC=C(C=C4)F)CC5=CN=CC=C5] | 16%

Same assay, conditions: −80 mV holding, step to V1/2 of inactivation for 8 s; HEK293T

Row | IC50 | Compound
23 | 3960 ± 140 nM | O=C(CC(c1ccc(C(F)(F)F)cc1)c1cn(Cc2ccc(F)cc2)c2ccccc12)NCCc1ccccn1 (stereo not shown) [WN1, C1=CC=C2C(=C1)C(=CN2CC3=CC=C(C=C3)F)C(CC(=O)NCCC4=CC=CC=N4)C5=CC=C(C=C5)C(F)(F)F]
24 | 113 ± 36.9 nM | Cc1ccc(Cn2cc([C@@H](CC(=O)NCCN(C)C)c3ccc(F)cc3)c3ccccc32)cc1 [WN2-S]
25 | 730 ± 120 nM | Cc1ccc(Cn2cc(C(CC(=O)NCCN(C)C)c3ccc(F)cc3)c3ccccc32)cc1 (stereo not shown) [WN2]
